Holding throughout (assay type): cell-based
Experiment [1] relates to Du145. Put plainly: MTT cell viability assay, Du145. Conditions: 72 h. As to the method:
(§1) 3-(4,5-dimethythiazol-2-yl)-2,5-diphenyl-2-H-tetrazolium bromide (MTT) colorimetric assay was employed to investigate cell viability. Cells were seeded into 96-well plates with 2-5× 10^3 cells per well (5× 10^3 cells/well for LNCaP, 22RV1, NIH-3T3, GES-1, Chang, […]
(§2) NCI-H1299, U2OS, U87) for 1 day incubation at 37 °C. Then, the cells were treated with various concentrations of compounds (22.86 nM - 50 μM) and incubated for 72 h. Then, 10 μl MTT (5 mg/ml) was added into each well and incubated for 4 h. Afterwards, 100 μl of triplex 10% SDS-0.1% HCl-phosophate-buffered saline (PBS) solutions was added into each well and incubated for overnight. The absorbance at 570 nm was measured (Eon, Bioteck, Winooski, VT). […]
(Tetrazolium assays rely on reduction of a dye to a coloured formazan, in cell work by metabolically active cells.)

Experiment [2] concerns the target T1, AR (Homo sapiens, UniProt P10275, T878A).
T1 construct: The cells of LNCaP-ARR2PB-eGFP were; endogenous in cells; host or cells: LNCaP-ARR2PB-eGFP
T1 sequence (P10275 1-920 T878A): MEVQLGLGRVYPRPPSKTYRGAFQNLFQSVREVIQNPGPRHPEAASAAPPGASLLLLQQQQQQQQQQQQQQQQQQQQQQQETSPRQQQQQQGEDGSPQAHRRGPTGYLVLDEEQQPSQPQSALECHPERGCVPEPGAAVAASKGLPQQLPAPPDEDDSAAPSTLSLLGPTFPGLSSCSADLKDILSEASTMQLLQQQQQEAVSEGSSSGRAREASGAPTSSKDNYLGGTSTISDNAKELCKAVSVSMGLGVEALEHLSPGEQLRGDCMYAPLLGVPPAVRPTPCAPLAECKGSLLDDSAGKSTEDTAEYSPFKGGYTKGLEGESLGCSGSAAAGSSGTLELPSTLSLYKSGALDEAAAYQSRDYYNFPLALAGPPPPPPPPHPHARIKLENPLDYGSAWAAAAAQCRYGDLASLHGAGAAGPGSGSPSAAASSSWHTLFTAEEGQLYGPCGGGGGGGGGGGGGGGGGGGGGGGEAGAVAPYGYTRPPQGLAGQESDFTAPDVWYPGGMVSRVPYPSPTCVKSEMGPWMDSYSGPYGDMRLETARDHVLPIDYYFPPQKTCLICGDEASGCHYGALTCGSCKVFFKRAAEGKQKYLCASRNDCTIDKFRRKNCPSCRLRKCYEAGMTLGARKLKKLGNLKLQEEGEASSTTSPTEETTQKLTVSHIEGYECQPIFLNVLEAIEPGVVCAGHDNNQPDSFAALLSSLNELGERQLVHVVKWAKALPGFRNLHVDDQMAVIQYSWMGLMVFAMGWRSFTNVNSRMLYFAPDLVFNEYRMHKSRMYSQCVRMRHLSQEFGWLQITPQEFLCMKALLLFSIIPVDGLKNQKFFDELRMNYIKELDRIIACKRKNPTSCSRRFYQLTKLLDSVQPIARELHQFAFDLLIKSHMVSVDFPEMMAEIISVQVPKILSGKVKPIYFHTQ
The experiment in a line: AR transcriptional activity assay (LNCaP-ARR2PB-eGFP cells). As to the method:
University, Hangzhou, China), respectively. […]
AR Transcriptional Activity Assay
The AR transcriptional activities were determined using the constructed LNCaP-ARR2PB-eGFP cell as previously reported.11, 12 The cells of LNCaP-ARR2PB-eGFP were […]
by seeding into a 96 -well plate (3.5× 10^4 cells/well) for 1 day incubation at 37 °C. Then, the cells were treated with 5 nM DHT and various concentrations of compounds (10 μM […]
the fluorescence intensities were determined using a Synergy H1 microplate reader

The test system of experiment [3] is 22RV1. Put plainly: MTT cell viability assay, 22RV1. Conditions: 72 h. As to the method:
as §1, §2

Experiment [4] deals with PC3. Put plainly: MTT cell viability assay, PC3. Conditions: 72 h. As for the experimental part: as §1, §2

Results on 1 compound are retold here after publication PMC10141604, “Small-Molecule Inhibition of Androgen Receptor Dimerization as a Strategy against Prostate Cancer” (ACS Central Science, 2023).

As to `CC(=O)Cc1nsc(NC(=O)c2cc(-c3cccc(C(F)(F)F)c3)oc2C)n1` [Compound M17-B15], in experiment [1], the “inhibition on the cell viability of Du145” value was “does not show obvious inhibition”. In addition, the IC50 in experiment [2] (LNCaP-ARR2PB-eGFP cells, 5 nM DHT, 3 days) was determined as 30 ± 10 nM. The “improvement in AR transcriptional inhibition compared with the original hit M17” value in experiment [2] (ratio of IC50 values) is reported as above 31 fold. Moreover, the “inhibition on the cell viability of 22RV1” value in experiment [3] is on record as “does not show obvious inhibition”. Moreover, the “inhibition on the cell viability of PC3” value in experiment [4] was “does not show obvious inhibition”.

Usually IC50 stands for the concentration needed to halve the response being measured.
